The values that follow come from patent US12458659B2, “Methods for treating macrophage-mediated diseases, and methods of identifying agents useful therefore” (The Regents of the University of California, priority 2019, dated 2025).

The test system of test [1] is NLRP3 inflammasome. Description: IL-1β release by LPS-primed macrophages stimulated with NLRP3 activators (ELISA). Conditions: BMDM pretreated with A769662, LPS-primed, ATP and nigericin 40 min. The class given is cell-based, mouse. As to the method:
Macrophage culture and stimulation—Femurs and tibias from C57BL/6 mice, Ampkα1^−/− mice, and Il10rb^−/− mice at 6-10 weeks of age were used to generate bone-marrow-derived macrophages (BMDM) as described (Hornung et al., 2008). Macrophages were cultured in DMEM supplemented with 10% FBS, 20% L929-cell conditioned medium, and 100 U/ml penicillin-streptomycin for 7-10 days. Bone marrow was isolated from MWS Nlrp3^A350VneoRCreT, FCAS Nlrp3^L351PneoCreT and NOMID Nlrp3^D301NneoCreT conditional knock-in mice (Bonar et al., 2012; Brydges et al., 2009), and were allowed to differentiate over 7 days with addition of fresh mouse recombinant GMCSF every three days. (Z)-4-hydroxitamoxifen at 0.4 μg/ml was added to cells 24 hr prior to treatment to induce the mutant Nlrp3 allele. Immortalized mouse BMDM were grown in DMEM supplemented with 10% FBS and 100 U/ml penicillin-streptomycin. All cells were grown at 37° C. with 5% CO2. NLRP3 inflammasome activation was induced priming for 4 hr with ultrapure LPS (100 ng/ml) followed by treatment with the NLRP3 activators ATP (4 mM) and nigericin (10 μM) for 45 min, unless otherwise indicated, and monosodium urate (MSU) crystals (400 μg/ml) and 1,2-dioleoyl-3-trimethylammoniumpropane (DOTAP) liposomes (50 μg/ml) for 3 hr. In Nlrp3 mutant macrophages IL-1b production was induced by LPS treatment for 16 hr at 37° C., whereas FCAS macrophages were incubated at 32° C. without LPS addition. AIM2 inflammasome activation was induced by 4 hr LPS priming and transfection with lipofectamine 3000 and the AIM2 activator poly(dA:dT) (1 μg/ml) for 8 hr. For choline deprivation experiments, the cells were cultured in CMRL1066 medium with or without choline for 2-3 hr before priming with LPS and kept during the experiment.
(§1) Protein Immunoblotting and ELISA—Mitochondria were isolated using Mitochondria Isolation kit. Whole cell lysates were prepared in NP40 buffer containing a protease inhibitor cocktail and a phosphatase inhibitor cocktail, and supernatants were analyzed by SDS-PAGE. […]
(ELISA stands for enzyme-linked immunosorbent assay.)

In test [2] the test system is Slc44a1/CTL1. Kind of test: Slc44a1/CTL1 induction by LPS in BMDM (QPCR). The settings on record: BMS345541-pretreated BMDM treated with LPS. The class given is cell-based, mouse. As to the method:
RNA Isolation and Quantitative Real-Time PCT (QPCR)—RNA was extracted using AllPrep DNA/RNA Mini kit, and cDNA was synthesized using SUPERSCRIPT™ VILO™ cDNA Synthesis Kit. mRNA expression was determined by QPCR in a CFX96 thermal cycler (Biorad) as described (Zhong et al., 2016c). Data are presented in arbitrary units and were calculated by 2^(-delta delta CT) method. Primer sequences were obtained from the NIH qPrimerDepot (mouseprimerdepot.nci.nih.gov) and provided by Integrated DNA technologies, as set forth below.

Test [3] relates to C57BL/6 mice. Kind of test: LPS-induced septic shock. It is filed as in vivo, mouse. As to the method:
LPS-induced septic shock and air pouch model—Eight- to twelve-week-old C57BL/6 mice were subjected to LPS-induced septic shock as described (Zhong et al., 2016c). Briefly, 50 mg/kg LPS was intraperitoneal (IP) injected, and when indicated, animals were pretreated with the ChoKα inhibitor MN58B 2.5 mg/kg or vehicle (sodium chloride) via IP injection daily, starting three days before LPS challenge. Mice were analyzed for survival and circulating cytokines (3 hr after LPS challenge). None of the animals was excluded from the analysis.

Test [4] has as its system C57BL/6 mice. Description: Synovium-like air pouch gout model (MSU crystals). The class given is in vivo, mouse. As to the method: Synovium-like air pouch gout model—Subcutaneous air pouches were generated by repeated injection of sterile air into 8-12-week old C57BL/6 mice to create an accessible space that develops a synovium-like membrane within 7 days as described (Wang et al., 2016). Afterward, mice were treated with MN58b IP (2.5 mg/kg) or vehicle, 24 hr before injecting lml MSU crystals (3 mg/ml) into the air pouch. Pouch tissue and fluids were harvested 8 hr later for analysis. None of the animals was excluded from the analysis.

For test [5], the system named is MWS Nlrp3^A350VneoRCreT mutant mice. Description: Muckle Wells Syndrome mice. The class given is in vivo, mouse. Conditions: 2.5 mg/kg IP BID for 15 days. As for the experimental part: Muckle Wells Syndrome Mice—Sixteen- to twenty-two-week-old male MWS Nlrp3^A350VneoRCreT mutant mice were subjected to MN58b (2.5 mg/kg) or vehicle IP injection BID daily for 15 days. Tamoxifen (50 mg/kg) was administered daily via IP for 4 days after first MN58b (or vehicle) treatment, and once more on day 7 to maintain Cre expression. At the endpoint, blood, spleen and liver were collected for analysis. Complete blood counts were preformed using a ScilVet Animal Blood Counter (ABX Diagnostics). Livers were paraffin embedded and hematoxylin and eosine staining was performed to assess liver histology. None of the animals was excluded from the analysis and liver histology was blind examined.

In test [6] the test system is ChoKα. Description: ChoKα levels after colchicine treatment. The class given is cell-based.
Test [7] concerns CTL1. Description: CTL1 levels after colchicine treatment. It is filed as cell-based.
CTL1, sequence (Q6X893 whole entry): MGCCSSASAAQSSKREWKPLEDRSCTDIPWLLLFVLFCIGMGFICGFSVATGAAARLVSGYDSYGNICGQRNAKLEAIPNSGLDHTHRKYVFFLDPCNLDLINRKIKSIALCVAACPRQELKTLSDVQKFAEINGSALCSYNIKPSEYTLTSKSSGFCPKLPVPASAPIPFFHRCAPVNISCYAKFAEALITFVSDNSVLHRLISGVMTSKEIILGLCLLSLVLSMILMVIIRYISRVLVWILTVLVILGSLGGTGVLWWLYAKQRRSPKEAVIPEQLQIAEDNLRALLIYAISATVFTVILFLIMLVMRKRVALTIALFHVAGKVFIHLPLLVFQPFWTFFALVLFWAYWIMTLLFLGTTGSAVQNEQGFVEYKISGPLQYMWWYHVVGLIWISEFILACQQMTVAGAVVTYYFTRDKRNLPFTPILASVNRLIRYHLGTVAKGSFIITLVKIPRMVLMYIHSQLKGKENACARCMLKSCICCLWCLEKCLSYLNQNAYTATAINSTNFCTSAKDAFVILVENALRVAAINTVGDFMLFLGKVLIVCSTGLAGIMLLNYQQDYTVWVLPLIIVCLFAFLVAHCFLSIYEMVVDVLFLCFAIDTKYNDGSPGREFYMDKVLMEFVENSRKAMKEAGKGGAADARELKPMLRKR
Test [8] concerns CTL1. Kind of test: CTL1 protein expression in LPS stimulated BMDM (immunoblot). The class given is cell-based, mouse. The settings on record: LPS stimulation. As for the experimental part:
Macrophage culture and stimulation—Femurs and tibias from C57BL/6 mice, Ampkα1^−/− mice, and Il10rb^−/− mice at 6-10 weeks of age were used to generate bone-marrow-derived macrophages (BMDM) as described (Hornung et al., 2008). Macrophages were cultured in DMEM supplemented with 10% FBS, 20% L929-cell conditioned medium, and 100 U/ml penicillin-streptomycin for 7-10 days. Bone marrow was isolated from MWS Nlrp3^A350VneoRCreT, FCAS Nlrp3^L351PneoCreT and NOMID Nlrp3^D301NneoCreT conditional knock-in mice (Bonar et al., 2012; Brydges et al., 2009), and were allowed to differentiate over 7 days with addition of fresh mouse recombinant GMCSF every three days. (Z)-4-hydroxitamoxifen at 0.4 μg/ml was added to cells 24 hr prior to treatment to induce the mutant Nlrp3 allele. Immortalized mouse BMDM were grown in DMEM supplemented with 10% FBS and 100 U/ml penicillin-streptomycin. All cells were grown at 37° C. with 5% CO2. […]
as §1

In test [9] the test system is choline mobilization via the Kennedy pathway. Description: Choline, phosphocholine and phosphatidylcholine content of LPS-stimulated BMDM (NMR, MS). It is filed as cell-based, mouse. The settings on record: BMDM, LPS 4 hr. As to the method:
Choline and Phosphocholine Analysis by NMR—BMDM were treated with LPS for 4 hr and then were collected and processed for NMR analysis as described (Guma et al., 2015a; Tiziani et al., 2009). Polar metabolite isolation was performed using a modified Bligh-Dyer procedure (Wu et al., 2008). Extracts were dried using a CentriVap refrigerated vacuum concentrator (Labconco, Kansas City, MO, USA). Dried extracts were reconstituted in 100 mM phosphate buffer (pH 7.0) prepared in 10% H2O/90% D2O (Sigma) that contained 0.5 mM sodium 3-(trimethylsilyl)propionate-2,2,3,3,-d4 (TMSP) as the internal standard. One-dimensional ^1H NMR spectra were acquired on a Bruker Avance III 500 MHz with 1.7 mm TCI MicroCryoProbe system (Bruker BioSpin Corp., Billerica, MA) equipped with an autosampler at 300 K and processed as previously described (Lodi et al., 2017; Lu et al., 2017; Ludwig and Gunther, 2011). Metabolite assignment and quantification were performed using the Chenomx 8.2 NMR Suite (Chenomx Inc., Edmonton, Alberta, Canada), the Birmingham Metabolite Library (Ludwig et al., 2012), and the Human Metabolome Database (Wishart et al., 2012).
Total phosphatidylcholine and mitochondrial lipids analysis by mass spectrometry—Total phosphatydilcholine (PC) analysis was measured in RSM932A-pretreated BMDM stimulated with LPS for 4 hr, while mitochondrial lipids were measured in mitochondria isolated from BMDM cultured in control or choline deficient medium and subjected to different treatments for 24 hr. Samples were processed for UHPLC-MS/MS analysis and analysis was performed on a hybrid quadrupole-Orbitrap mass spectrometer (Q Exactive, Thermo Scientific, Bremen, Germany) coupled to an Accela 1250 UHPLC system equipped with a quaternary pump, vacuum degasser, and open autosampler with temperature controller (6° C.; Fisher Scientific, San Jose, CA, USA). […]

Regarding `N#Cc1c(O)c2c(-c3ccc(-c4ccccc4O)cc3)csc2[nH]c1=O` [A769662], the IL-1β production result in test [1] is given as “significantly reduced”.
With `Cc1ccc2nc(NCCN)c3ncc(C)n3c2c1` [BMS345541], in [2], the Slc44a1/CTL1 induction entry is “blocked”.
As to `CN(C)c1cc[n+](Cc2ccc(CCCCc3ccc(C[n+]4ccc(N(C)C)cc4)cc3)cc2)cc1.[Br-].[Br-]` [MN58b], the LPS-induced death result in [3] (2.5 mg/kg IP daily for 3 days before 50 mg/kg LPS IP) was “prevented”. In test [3] (2.5 mg/kg IP daily for 3 days before LPS, 3 hr after LPS), the “circulating IL-1β” value is reported as “reduced”. Moreover, in [3] (circulating, 3 hr after LPS), the IL-6 production entry was “did not inhibit” and the TNF production entry is “did not inhibit”. Moreover, the “total leukocyte recruitment into the pouch” value in test [4] (2.5 mg/kg 24 hr before MSU crystals) is “attenuated”. Besides, the “production of IL-1β” value in test [4] (2.5 mg/kg 24 hr before MSU crystals, pouch) was “reduced”. Moreover, the “reduction of IL-1β release” value in [4] (2.5 mg/kg IP 24 hr before MSU crystals, pouch harvested 8 hr later, p<0.01) is 66%. In addition, in test [4] (2.5 mg/kg IP 24 hr before MSU crystals, pouch harvested 8 hr later, p<0.05), the “reduction of MSU crystal-induced leukocyte recruitment” value stood at 47%. Further, in test [5], the MWS splenomegaly entry was “reduced”, the granulocytes entry was “reduction”, the liver size result is “reduced” and the lymphocyte count result is given as “without an effect”. In [5], the monocytes result was “reduction” and the “total white blood cells count” value is reported as “reduction”.
Take `COc1cc2c(c(OC)c1OC)-c1ccc(OC)c(=O)cc1[C@@H](NC(C)=O)CC2` [colchicine]: the “reduction of ChoKα levels” value in test [6] stood at 85%. Besides, in [7], the “reduction of CTL1 levels” value worked out at 90%.
Consider lipopolysaccharide [LPS], for which the “increase of CTL1 expression” value in test [8] was 6 fold. This compound also registered an increase of phosphocholine in test [9] (p<0.001) of 559%. For the same compound, the “increase of intracellular choline” value in test [9] (p<0.01) was 238%.
